These results are taken from US20020032178A1 (priority 2000, published 2002).

Molecules are shown by their SMILES.

In turn, `COC(=O)c1cccc(/C=N/NC(=O)c2ccc(C)cc2)c1O` [I-2] displayed a melting point of 134 to 137 °C.

The melting point is the temperature of the solid-liquid transition.
